Several values for one entry are separate records, joined by “and”; a condition that tells them apart may be missing. Equal entries are not always repeated.
How the values were obtained:
HepG2 cells = assay: MTT antiproliferative assay, HepG2 cells; format: cell-based
Text: Recently, OSe agents have attracted interest due to their potential chemoprotective and antitumor properties. We have developed several OSe compounds with promising antioxidant, antimicrobial, and antitumor properties. Therefore, we estimated the OSe agents’ antiproliferative activities against different cancer cells, i.e., MCF-7 and HepG2 cells and healthy lung fibroblast WI-38 cells, using the MTT assay. The drug doxorubicin was employed as the standard. The corresponding therapeutic indices (TI) are described as the proportion of the WI38 cells IC50 to the IC50 of the cancer cell (e.g., MCF-7 and HepG2) (Table 1).
The products’ anticancer activity was examined using the MTT assay against breast (MCF-7) carcinoma cells, liver (HepG2), and normal WI-38 cells, following the previously reported method. Experimental details can be found in the Supplementary Materials.
1.1. The biological assays
1.1.1. The anticancer activity
The breast adenocarcinoma (MCF-7), Hepatocellular carcinoma (HEPG-2), and normal fibroblast (WI-38) cells were obtained from ATCC via Holding company for biological products and vaccines (VACSERA), Cairo, Egypt. The reagents […] medium, MTT, DMSO, and fetal bovine serum was obtained from Sigma Aldrich. Dulbecco’s modified Eagle’s medium was used as the culture medium for the cells, and the cytotoxicity was evaluated using the reported MTT assay. Doxorubicin was used as the positive reference, and the IC50 values were obtained from the corresponding dose-response curve.
This colorimetric assay is based on converting the yellow tetrazolium bromide (MTT) to a purple formazan derivative by mitochondrial succinate dehydrogenase in viable cells. Cell lines were cultured in […] medium with 10% fetal bovine serum. Antibiotics added were 100 units/ml penicillin and 100µg/ml streptomycin at 37 C in a 5% Co2 incubator. The cell lines were seeded in a 96-well plate at a density of 1.0x10^4 cells/well. at 37 C for 48 h under 5% Co2. After incubation, the cells were treated with different concentrations of compounds and incubated for 13 […]
Finally, dimethyl sulfoxide (DMSO) in the volume of 100 µl is added to each well to dissolve the purple formazan formed. The colorimetric assay is measured and recorded at an absorbance of 570 nm using a plate reader (EXL 800, USA). The percentage of the relative cell viability was calculated as (A570 of treated samples/A570 of the untreated sample) X 100. […]

S. aureus = assay: Agar diffusion assay, S. aureus; format: cell-based, Staphylococcus aureus; parameters: concentration or dose not given beside the values; conditions: ratio of inhibition zone of compound to that of positive control (ampicillin)
Text: The encouraging antitumor properties of the OSe compounds motivated us to evaluate their corresponding antimicrobial activities against the C. albicans fungal strain, S. aureus Gram-positive bacteria, and E. coli Gram-negative bacteria. Therefore, we applied the agar diffusion and minimum inhibitory concentration (MIC) methods using clotrimazole antifungal and ampicillin antibacterial drugs as standards.
The products’ antimicrobial properties were examined according to the previously reported method, via agar well diffusion assay against E. coli, S. aureus, and C. albicans. A microdilution method was also used to record MICs (M), following the previously reported procedure. Experimental details can be found in the Supplementary Materials. […]
1.1.2. The antimicrobial activity
The antimicrobial activities of the OSe compounds were evaluate d against C. albicans yeast as well as E. coli gram-negative and S. aureus gram-positive bacteria employing the agar well diffusion assay.
Briefly, a concentration of 1 mM was prepared for each compound by dissolving in DMSO. Paper discs of standard size […] were sterilized in an autoclave and soaked in 9 µL of the test compounds, and placed in the Petri dishes, which in turn contain a nutrient media (agar 9 g, peptone 5 g, and beef extract 3 g) seeded with the dedicated strain. Incubation lasted for 13 h at 36 0C.
Experiments were replicated three times and the antifungal clotrimazole and antibiotic ampicillin […]

[1] = DPPH radical scavenging assay
Method: The antioxidant activities of the OSe compounds were intensively investigated because these are usually the cause of their chemopreventive potency. Their redox activities were evaluated via DPPH and ABTS assays, using ascorbic acid as the standard. We spectrophotometrically measured the antioxidant efficiency of the OSe compounds by their ability to decolorise the DPPH^. and ABTS^. radicals at […] (Figure 2).
The compounds’ antioxidant properties were assessed by in vitro bioassays using DPPH and ABTS, following the reported method. Details are in the Supplementary Materials.
Figure 4 Estimation of the OSe compounds’ redox activities via DPPH and ABTS experiments. All tests are mean ± S.D. ABTS experiment: absorbance was followed at 734 nm for OSe compounds (50 µL, 1 mM in MeOH) and ABTS solution (60 µL). DPPH Absorbance was monitored at 517 nm for OSe compounds (200 µL, 1 mM in MeOH) and DPPH (400 µL) after 30 min. […]
1.1.3. The antioxidant activity
1.1.3.1. The DPPH bioassay
The hydrogen atom or electron donation ability of the corresponding compounds was measured by estimating the bleaching of the purple color of a methanolic solution of DPPH [5]. This spectrophotometric assay uses stable DPPH. reagent. The sample was prepared by adding […] of the OSe compounds (1 mM in methanol) to […] DPPH in methanol. After 30 min of incubation in the dark, the absorbance was read against a blank at […]. Ascorbic acid (vitamin C) and ebselen were used as standard antioxidants (positive control). A blank sample was run without DPPH. A negative control sample was run using methanol instead of the sample. The radical scavenging activity was calculated using the following equation:
Inhibition%= (Ablank-Asample)/(Ablank)*100. […]

Structure (SMILES): Nc1ccc([Se]CC(=O)NOCc2ccccc2)cc1 [Compound 8, 2-((4-Aminophenyl)selanyl)-N-(benzyloxy)acetamide]
- IC50 (HepG2 cells; Homo sapiens, HepG2, 24 h, read-out: HepG2 IC50): 7.57 ± 0.5 µM
- HepG2 TI (therapeutic index) (HepG2 cells; ratio of IC50 against WI38 cells to IC50 against HepG2 cells): 3.6
- S. aureus IA% (activity index) (S. aureus): 90.5%
- antioxidant (scavenging) activity in the DPPH assay ([1]; compounds 200 µL, 1 mM in MeOH, DPPH 400 µL, 30 min, absorbance at 517 nm): 85.1% and 92.3%
- IC50 ([1]; concentration causing 50% decrease in absorbance, DPPH assay): 23.67 ± 0.21 µM
